A word on the IC50: it is the midpoint of a concentration-inhibition curve.

The results in this text go back to patent publication US10358437B2, “Therapeutic compounds and uses thereof” (GENENTECH, INC., priority 2014, dated 2019).

Where a name gives a salt, the structure may show the parent alone.

The target of the assay is T1, PCAF bromodomain (Homo sapiens, UniProt Q92831).
T1 construct: Flag; made in house
T1 sequence (Q92831 719-832): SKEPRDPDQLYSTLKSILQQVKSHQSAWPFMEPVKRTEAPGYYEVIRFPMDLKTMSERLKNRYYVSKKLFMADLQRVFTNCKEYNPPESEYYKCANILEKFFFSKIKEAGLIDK
The assay can be described thus: PCAF AlphaLisa binding assay. To be noted: His/Flag tagged PCAF719-832 bromodomain 225 nM, biotinylated small molecule ligand 6 nM. On the procedure:
IC50 Measurements for Inhibitors Using PCAF AlphaLisa Binding Assay
His/Flag epitope tagged PCAF719-832 bromodomain was cloned, expressed and purified to homogeneity in-house. PCAF bromodomain binding and inhibition of the compounds disclosed herein was assessed by monitoring the engagement of biotinylated small molecule ligand (known to bind to the PCAF bromodomain) with the target using the AlphaLisa technology (Perkin-Elmer). Specifically, in a 384 well ProxiPlate PCAF bromodomain (225 nM final) was combined with the biotinylated small molecule ligand (6 nM final) in 50 mM HEPES (pH 7.5), 75 mM NaCl, 1 mM TCEP, 0.01% (w/v) BSA, and 0.008% (w/v) Brij-35 either in the presence of DMSO (final 0.2% DMSO) or compound dilution series in DMSO. After 15 minute incubation at room temperature AlphaLisa streptavidin acceptor beads and AlphaLisa anti-histidine donor beads were added to a final concentration of 12.5 μg/mL each.
PCAF IC50 values for the Examples 1-22 were determined using the general procedure described above.
In general terms: Alpha assays give light when donor and acceptor beads are brought close together.
Regarding `CN(C)C(CNc1nn(C)c(=O)n(C)c1=O)c1ccc(C(F)(F)F)cc1` (racemic) [Example 14, 6-((2-(dimethylamino)-2-(4-(trifluoromethyl)phenyl)ethyl)amino)-2,4-dimethyl-1,2,4-triazine-3,5(2H,4H)-dione], the IC50 came out at 0.25 µM.
With `C[C@H](Nc1nn(C)c(=O)n(C)c1=O)[C@H](c1ccccc1)N(C)C` (single isomer, unassigned) [Example 17], the 50% inhibitory concentration (IC50) worked out at 0.12 µM.
For `CN(C)C1CCCN(c2nn(C)c(=O)n(C)c2=O)C1` (racemic) [Example 12, 6-(3-(dimethylamino)piperidin-1-yl)-2,4-dimethyl-1,2,4-triazine-3,5(2H,4H)-dione], the IC50 is > 20 µM.
The same measure for `CN(C)[C@H]1CCCC[C@H]1Nc1nn(C)c(=O)n(C)c1=O` (racemic) [Example 19, 6-((2-(dimethylamino)cyclohexyl)amino)-2,4-dimethyl-1,2,4-triazine-3,5(2H,4H)-dione hydrochloride]: 1.1 µM.
Turning to `COc1ccc(C(CNc2nn(C)c(=O)n(C)c2=O)N(C)C)cc1` (racemic) [Example 6, 6-((2-(dimethylamino)-2-(4-methoxyphenyl)ethyl)amino)-2,4-dimethyl-1,2,4-triazine-3,5(2H,4H)-dione], the IC50 amounted to 0.15 µM.
Consider `CN1c2ccccc2CCC1CNc1nn(C)c(=O)n(C)c1=O` (racemic) [Example 2, 2,4-dimethyl-6-(((1-methyl-1,2,3,4-tetrahydroquinolin-2-yl)methyl)amino)-1,2,4-triazine-3,5(2H,4H)-dione], for which the 50% inhibitory concentration (IC50) is > 20 µM.
`CN1CCc2ccccc2C1CNc1nn(C)c(=O)n(C)c1=O` (racemic) [Example 21, 2,4-dimethyl-6-(((2-methyl-1,2,3,4-tetrahydroisoquinolin-1-yl)methyl)amino)-1,2,4-triazine-3,5(2H,4H)-dione] gave an IC50 of 1.2 µM.
As for `Cn1nc(NCCNc2ccccc2)c(=O)n(C)c1=O` [Example 5, 2,4-dimethyl-6-((2-(phenylamino)ethyl)amino)-1,2,4-triazine-3,5(2H,4H)-dione], the IC50 amounted to 65 µM.
In turn, `CN(C)C(CNc1nn(C)c(=O)n(C)c1=O)c1ccc(F)cc1` (racemic) [Example 4, 6-((2-(dimethylamino)-2-(4-fluorophenyl)ethyl)amino)-2,4-dimethyl-1,2,4-triazine-3,5(2H,4H)-dione] had a half-inhibitory concentration (IC50) of 0.28 µM.
The same measure for `CN(C)C(CNc1nn(C)c(=O)n(C)c1=O)c1cccc(Cl)c1` (racemic) [Example 10, 6-((2-(3-chlorophenyl)-2-(dimethylamino)ethyl)amino)-2,4-dimethyl-1,2,4-triazine-3,5(2H,4H)-dione]: 0.43 µM; for `C[C@H](Nc1nn(C)c(=O)n(C)c1=O)[C@H](c1ccc(S(=O)(=O)c2ccccc2)cc1)N(C)C` (single isomer, unassigned) [Example 18]: 0.07 µM; for `CCn1nc(NCC(c2ccccc2)N(C)C)c(=O)n(CC)c1=O` (racemic) [Example 22, 6-((2-(dimethylamino)-2-phenylethyl)amino)-2,4-diethyl-1,2,4-triazine-3,5(2H,4H)-dione]: 12 µM.
The result for `CN(C)CCN(C)c1nn(C)c(=O)n(C)c1=O` [Example 7, 6-((2-(dimethylamino)ethyl)(methyl)amino)-2,4-dimethyl-1,2,4-triazine-3,5(2H,4H)-dione (trifluoroacetic acid salt)] reads 37 µM; that for `CN1CCCC1CNc1nn(C)c(=O)n(C)c1=O` (racemic) [Example 3, 2,4-dimethyl-6-(((1-methylpyrrolidin-2-yl)methyl)amino)-1,2,4-triazine-3,5(2H,4H)-dione], 2.5 µM; that for `CN(CCNc1nn(C)c(=O)n(C)c1=O)CC(F)(F)F` [Example 1, 2,4-dimethyl-6-((2-(methyl(2,2,2-trifluoroethyl)amino)ethyl)amino)-1,2,4-triazine-3,5(2H,4H)-dione], > 20 µM.
Consider `Cn1nc(N2CCNC(c3ccccc3)C2)c(=O)n(C)c1=O` (racemic) [Example 13, 2,4-dimethyl-6-(3-phenylpiperazin-1-yl)-1,2,4-triazine-3,5(2H,4H)-dione], for which the IC50 was > 20 µM.
On to `CN(C)C(CNc1nn(C)c(=O)n(C)c1=O)Cc1ccccc1` (racemic) [Example 11, 6-((2-(dimethylamino)-3-phenylpropyl)amino)-2,4-dimethyl-1,2,4-triazine-3,5(2H,4H)-dione], for which the IC50 worked out at 1.4 µM.
The molecule `Cn1nc(NCC(c2ccccc2)N2CCCC2)c(=O)n(C)c1=O` (racemic) [Example 16, 2,4-dimethyl-6-((2-phenyl-2-(pyrrolidin-1-yl)ethyl)amino)-1,2,4-triazine-3,5(2H,4H)-dione] displayed a concentration for half-maximal inhibition (IC50) of 8.1 µM.
As for `CN1Cc2ccccc2CC1CNc1nn(C)c(=O)n(C)c1=O` (racemic) [Example 8, 2,4-dimethyl-6-[(2-methyl-3,4-dihydro-1H-isoquinolin-3-yl)methylamino]-1,2,4-triazine-3,5-dione], the IC50 came out at 0.38 µM.
The same measure for `CN(C)[C@@H]1CCCC[C@H]1Nc1nn(C)c(=O)n(C)c1=O` (racemic) [Example 20, 6-(((1R,2R)-2-(dimethylamino)cyclohexyl)amino)-2,4-dimethyl-1,2,4-triazine-3,5(2H,4H)-dione]: 0.23 µM; for `CN(C)C(C)(CNc1nn(C)c(=O)n(C)c1=O)c1ccccc1` (racemic) [Example 15, 6-((2-(dimethylamino)-2-phenylpropyl)amino)-2,4-dimethyl-1,2,4-triazine-3,5(2H,4H)-dione]: 0.48 µM; for `CN(CCNc1nn(C)c(=O)n(C)c1=O)Cc1ccccc1` [Example 9, 6-((2-(benzyl(methyl)amino)ethyl)amino)-2,4-dimethyl-1,2,4-triazine-3,5(2H,4H)-dione]: 7.5 µM.
